Test results published in patent publication US5753221A, “Transformed erythrocytes, process for preparing the same, and their use in pharmaceutical compositions” (priority 1991, dated 1998).
Read-outs that look alike come from different tables or passages of the source.

How the values were obtained:
[1] = system: HIV; conditions: cited from earlier work
[2] = cited from earlier work
[3] = target: cytidine deaminase (Homo sapiens, UniProt P32320); conditions: cited from earlier work
[4] = system: human erythrocytes lysates; assay: ddCTP stability in human erythrocytes lysates (HPLC); assay type: in vitro ADME; conditions: for time stable in erythrocyte lysate: in the presence or absence of ATP
Experimental: Human erythrocytes lysates were prepared by adding 2 volumes of 3 mM sodium potassium phosphate buffer, pH 7.4, containing 3 mM mercaptoethanol, 0.5 mM EDTA to each volume of washed and packed erythrocytes. After 30 min at 4° C., the lysates were centrifuged for 1 h at 12,000×g to remove the cell membranes. The supernatants were then dialyzed overnight against 160 volumes of 0.9% (w/v) NaCl containing 10 mM Tris-HCl, pH 7.5, 10 mM MgCl2 and 0.02 mM EDTA. The dialyzed lysates were then used for the studies of ddCTP stability. Briefly, 900 μl of lysate containing ddCTP 50 μM, 100 μM, 300 μM, 1.2 mM or 1.5 mM in a final volume of 1.2 ml were incubated at 37° C. At time intervals of 0, 15, 30 and 60 min, 250 μl of the incubation mixtures were removed and extracted with 125 μl of 10% (v/v) HClO4. The perchloric acid extract was then neutralized with 23 μl of a 3M solution of K2 CO3, diluted with 60 μl of 0.1M sodium potassium phosphate buffer pH 6.5, centrifuged 10 min at 10,000 rpm in an Eppendorf microcentrifuge and 100 μl of extract analyzed by HPLC as described below. […] Integration of peak areas was obtained by means of an HP 3390A electronic integrator (Hewlett-Packard, Avondale, Pa., U.S.A.). A 5 μm Supelcosil LC-18 column (250 mm×4.6 mm I.D., Supelco, Bellefonte, Pa., U.S.A.) protected by a guard column (Pelliguard LC-18, 20 mm×4.6 mm I.D., pellicular packing material, 40 μm particles) was used throughout these studies. […] All buffer solutions, as well as standards and sample solutions, were filtered through a 0.22 μm membrane filter (Millipore).
The elution conditions used to obtain the chromatograms were: 2 min 100% buffer A, 4 min up to 10% buffer B, 4 min up to 40% buffer B, 3 min up to 100% buffer B and the same conditions are maintained for 7 min. The gradient was then returned to 100% buffer A in 2 min and the initial conditions restored in 8 min. The flow-rate was 1.3 ml/min and the detection wavelength was 272 nm. The analyses were performed at room temperature. Quantitative measurements were carried out by injection of standard solutions of known concentration.

[5] = Stability of ddCTP in intact ddCTP-loaded erythrocytes; assay type: in vitro ADME, human; conditions: human, erythrocytes; incubation time over 3 h, 37° C; read-out: decay of ddCTP
Experimental: (§1) In this case the stability of ddCTP (1 mM) in loaded erythrocytes was evaluated at 37° C. by incubation of ddCTP-loaded erythrocytes at 6% hematocrit in 0.9% (w/v) NaCl containing 10 mM glucose, 5 mM sodium, potassium phosphate buffer, pH 7.4. At different time intervals (0 to 5 h) aliquots (200 μl) of the incubation suspensions were extracted with 100 μl 10% (w/v) HClO4, centrifuged, neutralized and submitted to HPLC analyses as above. In some experiments ^3 H-ddCTP (4 Ci/mmol, Moravek Biochemicals, Inc. Brea Ca) was used.
(§2) In this case fractions of 0.3 ml were collected at the exit of the wavelength detector of the HPLC system by using an LKB fraction collector and counted in a Packard liquid scintillation Counter. Both methods (HPLC detection and liquid scintillation counting) provided similar results (i.e. ddCTP was stable in erythrocytes until ATP was maintained at physiological concentrations of 1.2 mM, while ddCTP dephosphorylation starts when ATP fall down to values lower than 1 mM.

[6] = system: human erythrocytes; assay: as above; assay type: in vitro ADME
Experimental: as §1, §2

[7] = system: human monocytes/macrophages; assay: Delivery of 3H-ddCTP to monocytes/macrophages by phagocytosis; assay type: cell-based; conditions: 3H-ddCTP-loaded erythrocytes
Experimental: Human monocytes/macrophages were prepared from heparinized blood by Lymphoprep (Nyegaard & Co Oslo, Norway) centrifugation. Mononuclear cells collected at the interface between the Lymphoprep and plasma were washed in 5 mM sodium potassium phosphate buffer, pH 7.4, containing 0.9% (w/v) NaCl, 5 mM glucose and finally resuspended in RPMI 1640 medium containing 10% (v/v) fetal bovine serum (FCS). 8.10^6 cells were placed into 100 mm Corning dish and incubated overnight at 37° C. and 5% CO2. Adherent monocytes/macrophages cells were separated from the lymphocytes by three washing steps in RPMI/FCS medium, counted by Tripan blue exclusion dye and incubated with ddCTP-loaded erythrocytes treated or not with ZnCl2 plus BS^3 or with unloaded erythrocytes overnight at 37° C. at a ratio of 100 erythrocytes per monocytes/macrophages. During the loading procedure ^125 I-ubiquitin (2.1 mCi/mg) was also encapsulated as an internal marker to follow phagocytosis both into ddCTP-loaded on ddCTP-unloaded erythrocytes. (Ubiquitin is a polypeptide of 8 KDa that can be easily encapsulated and is retained by the erythrocytes).
After monocytes/macrophages-erythrocytes incubation the dishes were extensively washed with RPMI 1640 medium to remove all erythrocytes not phagocytosed, followed by a 0.9% ammonium chloride washing step to remove adherent erythrocytes that were not yet phagocytosed. […]

[8] = system: ddCTP dephosphorylation; assay: ATP inhibition of ddCTP dephosphorylation in erythrocyte lysate; assay type: biochemical, human; conditions: 2 mM ATP, 100 μM ddCTP, 37° C
Experimental: Human erythrocytes lysates were prepared by adding 2 volumes of 3 mM sodium potassium phosphate buffer, pH 7.4, containing 3 mM mercaptoethanol, 0.5 mM EDTA to each volume of washed and packed erythrocytes. After 30 min at 4° C., the lysates were centrifuged for 1 h at 12,000×g to remove the cell membranes. The supernatants were then dialyzed overnight against 160 volumes of 0.9% (w/v) NaCl containing 10 mM Tris-HCl, pH 7.5, 10 mM MgCl2 and 0.02 mM EDTA. The dialyzed lysates were then used for the studies of ddCTP stability. Briefly, 900 μl of lysate containing ddCTP 50 μM, 100 μM, 300 μM, 1.2 mM or 1.5 mM in a final volume of 1.2 ml were incubated at 37° C. At time intervals of 0, 15, 30 and 60 min, 250 μl of the incubation mixtures were removed and extracted with 125 μl of 10% (v/v) HClO4. The perchloric acid extract was then neutralized with 23 μl of a 3M solution of K2 CO3, diluted with 60 μl of 0.1M sodium potassium phosphate buffer pH 6.5, centrifuged 10 min at 10,000 rpm in an Eppendorf microcentrifuge and 100 μl of extract analyzed by HPLC as described below. […] Integration of peak areas was obtained by means of an HP 3390A electronic integrator (Hewlett-Packard, Avondale, Pa., U.S.A.). […]

[9] = In vivo half life of loaded erythrocytes in mice (125I-ubiquitin radioactivity)
Experimental: Similar experiments were also performed on mice erythrocytes to do in vivo studies. The results are similar to those reported above. The in vivo half life of these erythrocytes was evaluated by following the radioactivity of ^125 I-ubiquitin-loaded erythrocytes coencapsulated with ddCTP in erythrocytes treated or not with ZnCl2 and BS^3.
In this case, the radioactivity associated with the erythrocytes was determined on blood collected from the tail vein of animals receiving the erythrocytes described above.

[10] = system: human erythrocytes; conditions: cited from earlier work

cytidine deaminase, sequence (P32320 whole entry): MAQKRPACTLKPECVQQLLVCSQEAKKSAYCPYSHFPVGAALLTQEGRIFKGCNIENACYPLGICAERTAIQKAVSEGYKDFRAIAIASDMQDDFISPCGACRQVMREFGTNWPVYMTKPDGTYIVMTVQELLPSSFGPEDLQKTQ

Q: With `Nc1ccn([C@H]2CC[C@@H](CO)O2)c(=O)n1` [ddCyd, 2',3'-Dideoxycytidine] as the compound, how does the “concentration that completely protects target helper/inducer T cells against HIV infections” value ([1]; in vitro) read?
A: The value was no less than 0.5 µM.

Q: And the “concentration that can suppress the virus” value ([1]; low multiplicity of infection)?
A: Its value is no less than 10 nM.

Q: What about the concentration ([2]; 0.09 mg/Kg, intravenous, 4 h, read-out: plasma level at four hours after intravenous administration) of the same compound?
A: Its concentration is less than 100 nM.

Q: And the bioavailability ([2]; human, in vivo)?
A: Its bioavailability is “good bioavailability”.

Q: What about the “short plasma half-life (approximate)” value ([2]; human, in vivo) of the same compound?
A: Its value is “approximately 1 h”.

Q: And the concentration ([2]; patients receiving 0.09 mg/Kg, read-out: plasma level during the infusion)?
A: The concentration was greater than 500 nM.

Q: And the “resistance to cytidine deaminase” value [3]?
A: Its value is “resistant to cytidine deaminase”.

Q: What does the source list for `Nc1ccn([C@H]2CC[C@@H](COP(=O)(O)OP(=O)(O)OP(=O)(O)O)O2)c(=O)n1` [ddCTP, 2',3'-dideoxycytidine-5'-triphosphate]?
A: pH of maximum dephosphorylation rate [4]: 8.4; Vmax of dephosphorylation of ddCTP to ddCDP ([4]; 37° C): 3±0.5 nmol/min/g HB; Km ([4]; 37° C, read-out: Km of dephosphorylation of ddCTP to ddCDP): 140 µM; dephosphorylation rate relative to maximum rate ([4]; pH 7.2 (physiological value)): 50%; metabolised at 3 h, 1000 µM [5]: 20%; ATP concentration below which ddCTP dephosphorylation starts [6]: lower than 1 mM; stability of ddCTP in intact cells ([6]; 37° C, 1 mM ddCTP, 6% hematocrit): stable even at 37 °C; concentration of ddCTP in monocytes/macrophages after phagocytosis [7]: 2.88 µM

Q: With `Nc1ncnc2c1ncn2[C@@H]1O[C@H](COP(=O)(O)OP(=O)(O)OP(=O)(O)O)[C@@H](O)[C@H]1O` [ATP] as the compound, how does the “effect on ddCTP dephosphorylation” value [8] read?
A: Its value is “completely abolishes”.

Q: For `[Cl-].[Cl-].[Zn+2]` [ZnCl2], which “lowest ZnCl2 concentration able to modify red cell survival” value [9] is on record?
A: Its value is 0.1 mM.

Q: For `Nc1ccn([C@H]2CC[C@@H](COP(=O)(O)O)O2)c(=O)n1` [ddCMP, 2',3'-dideoxycytidine-5'-phosphate], which “fate of ddCMP encapsulated in human erythrocytes” value [10] is on record?
A: The value was “dephosphorylated by endogenous pyrimidine nucleotidases and subsequently released by the cells as ddCyd”.

Q: For `Cc1cn([C@H]2C[C@H](N=[N+]=[N-])[C@@H](CO)O2)c(=O)[nH]c1=O` [AZT, 3'-azido-3'-deoxythymidine], which “short plasma half-life (approximate)” value ([2]; human, in vivo) is on record?
A: The value was “approximately 1 h”.

Q: Which “time stable in erythrocyte lysate” value ([4]; 37° C) does the source give for `Nc1nc2c(ncn2[C@H]2CC[C@@H](COP(=O)(O)OP(=O)(O)OP(=O)(O)O)O2)c(=O)[nH]1` [ddGTP, 2',3'-dideoxyguanosine-5'-triphosphate] here?
A: The value was “at least 2 h”.

Q: Which “time stable in erythrocyte lysate” value ([4]; 37° C) does the source give for `Nc1ncnc2c1ncn2[C@H]1CC[C@@H](COP(=O)(O)OP(=O)(O)OP(=O)(O)O)O1` [ddATP, 2',3'-dideoxyadenosine-5'-triphosphate] here?
A: Its value is “at least 2 h”.

Q: Which “time stable in erythrocyte lysate” value ([4]; 37° C) does the source give for `O=c1[nH]cnc2c1ncn2[C@H]1CC[C@@H](COP(=O)(O)OP(=O)(O)OP(=O)(O)O)O1` [ddITP, 2',3'-dideoxyinosine-5'-triphosphate] here?
A: Its value is “at least 2 h”.
